Reference: US10383871B2, “Azetidine derivatives” (Vernalis (R&D) Ltd, priority 2008, dated 2019)

Assay: Plasma concentrations after oral administration in laboratory rats
Format: in vivo, rat

Structure (SMILES)	plasma concentrations after oral administration
COc1ccccc1-c1ccc(OC2CN(C(=O)Nc3cccnn3)C2)nc1 [Example 17, 3-[5-(2-Methoxy-phenyl)-pyridin-2-yloxy]-azetidine-1-carboxylic acid pyridazin-3-ylamine]	high and prolonged plasma concentrations
O=C(Nc1cccnn1)N1CC(Oc2ccc(-c3ccccc3F)cn2)C1 [Example 18, 3-[5-(2-Fluoro-phenyl)-pyridin-2-yloxy]-azetidine-1-carboxylic acid pyridazin-3-ylamide]	high and prolonged plasma concentrations
O=C(Nc1cccnc1)N1CC(Oc2ccc(-c3ccccc3)cc2)C1 [Example 4, 3-(Biphenyl-4-yloxy)-azetidine-1-carboxylic acid pyridin-3-ylamide]	high and prolonged plasma concentrations
O=C(Nc1cccnn1)N1CC(Oc2ccc(-c3ccccc3)cn2)C1 [Example 13, 3-(5-Phenyl-pyridin-2-yloxy)-azetidine-1-carboxylic acid pyridazin-3-ylamide]	high and prolonged plasma concentrations
COCCOc1cccc(-c2ccc(OC3CN(C(=O)Nc4cccnn4)C3)nc2)c1 [Example 7, 3-{5-[3-(2-Methoxy-ethoxy)-phenyl]-pyridin-2-yloxy}-azetidine-1-carboxylic acid pyridazin-3-ylamide]	high and prolonged plasma concentrations
